# System: HCV genotype 1b replicon in Huh 7 cells
# Assay: HCV replicon assay (luciferase readout, 1b_Huh-Luc/Neo-ET cell line)
# Type: cell-based
# Conditions: Hepatitis C virus, Huh-7, 72 h, read-out: Inhibition of HCV genotype 1b, Table 3, 72 h incubation
# How it was run: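 Inhibition expressed as percent of untreated control luciferase signal and fitted to a Hill-slope equation for EC50, with repeat determinations. Compounds were added in triplicate to Huh 7 cells stably expressing the genotype 1b luciferase replicon, with 72 h exposure.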
row,Compound,EC50 [nM]
1,C[C@H](NC(=O)[C@H](NC(=O)OC(C)(C)C)c1ccccc1)c1ncc(C2CCN(c3c(F)cc(-c4cnc([C@@H]5CCCN5C(=O)[C@H](NC(=O)OC(C)(C)C)c5ccccc5)[nH]4)cc3F)CC2)[nH]1 [compound 513],< 1
2,C[C@H](NC(=O)[C@H](NC(=O)C1CC1)c1ccccc1)c1ncc(C2CCN(c3c(F)cc(-c4cnc([C@@H]5CCCN5C(=O)[C@H](NC(=O)C5CC5)c5ccccc5)[nH]4)cc3F)CC2)[nH]1 [compound 514],< 1
3,COC(=O)N[C@H](C(=O)N[C@H](c1ncc(C2CCN(c3c(F)cc(-c4cnc([C@@H]5CCCN5C(=O)[C@@H](NC(=O)OC)C(C)C)[nH]4)cc3F)CC2)[nH]1)C(C)C)C(C)C [compound 515],< 1
4,COC(=O)N[C@@H](C(=O)N[C@@H](C)c1ncc(C2CCN(c3c(F)cc(-c4cnc([C@@H]5CCCN5C(=O)[C@H](NC(=O)OC)c5ccccc5)[nH]4)cc3F)CC2)[nH]1)c1ccccc1 [compound 517],< 1
5,COC(=O)N[C@@H](C(=O)N[C@@H](C)c1ncc(-c2cc(F)c(N3CCC(c4cnc([C@@H]5CCCN5C(=O)[C@H](NC(=O)OC)c5ccccc5)[nH]4)CC3)c(F)c2)[nH]1)c1ccccc1 [compound 518],< 1
6,COC(=O)N[C@H](C(=O)N[C@@H](C)c1ncc(-c2cc(F)c(N3CCC(c4cnc([C@@H]5CCCN5C(=O)[C@@H](NC(=O)OC)C(C)C)[nH]4)CC3)c(F)c2)[nH]1)C(C)C [compound 519],< 1
7,C[C@H](NC(=O)[C@H](NC(=O)OC(C)(C)C)c1ccccc1)c1ncc(-c2cc(F)c(N3CCC(c4cnc([C@@H]5CCCN5C(=O)[C@H](NC(=O)OC(C)(C)C)c5ccccc5)[nH]4)CC3)c(F)c2)[nH]1 [compound 520],< 1

# Same assay, conditions: Hepatitis C virus, Huh-7, 72 h, read-out: Inhibition of HCV genotype 1b, Table 4, 72 h incubation
row,Compound,EC50 [nM]
1,COC(=O)N[C@@H](C(=O)N1CCC[C@H]1c1nc2ccc(-c3ccc(-c4ccc5nc([C@@H]6CCCN6C(=O)[C@H](NC(=O)OC)c6ccccc6)[nH]c5c4)cc3)cc2[nH]1)c1ccccc1 [compound 550],< 1
2,COC(=O)N[C@H](C(=O)N1CCC[C@H]1c1nc2ccc(-c3ccc(-c4ccc5nc([C@@H]6CCCN6C(=O)[C@@H](NC(=O)OC)C(C)C)[nH]c5c4)cc3)cc2[nH]1)C(C)C [compound 551],< 1
3,CC(C)[C@H](NC(=O)N1CCCC1)C(=O)N1CCC[C@H]1c1nc2ccc(-c3ccc(-c4ccc5nc([C@@H]6CCCN6C(=O)[C@@H](NC(=O)N6CCCC6)C(C)C)[nH]c5c4)cc3)cc2[nH]1 [compound 552],> 1000
4,CC(C)[C@H](NC(=O)N1CC[C@H](O)C1)C(=O)N1CCC[C@H]1c1nc2ccc(-c3ccc(-c4ccc5nc([C@@H]6CCCN6C(=O)[C@@H](NC(=O)N6CC[C@H](O)C6)C(C)C)[nH]c5c4)cc3)cc2[nH]1 [compound 553],> 1000
5,CC(C)[C@H](NC(=O)OC(C)(C)C)C(=O)N1CCC[C@H]1c1nc2ccc(-c3ccc(-c4ccc5nc([C@@H]6CCCN6C(=O)[C@@H](NC(=O)OC(C)(C)C)C(C)C)[nH]c5c4)cc3)cc2[nH]1 [compound 554],> 1000
6,COC(=O)N[C@H](C(=O)N1CCC[C@H]1c1nc2ccc(-c3ccc(-c4ccc5nc([C@@H]6CCCN6C(=O)[C@@H](NC(=O)OC)[C@@H](C)OC)[nH]c5c4)cc3)cc2[nH]1)[C@@H](C)OC [compound 555],< 1
7,COC(=O)N[C@H](C(=O)N1CCC[C@H]1c1nc2ccc(-c3ccc(-c4ccc5nc([C@@H]6CCCN6C(=O)[C@@H](NC(=O)OC)C(C)C)[nH]c5c4)nc3)cc2[nH]1)C(C)C [compound 556],< 1
8,COC(=O)N[C@H](C(=O)N1CCC[C@H]1c1nc2ccc(-c3ccc(-c4ccc5nc([C@@H]6CCCN6C(=O)[C@@H](NC(=O)OC)[C@@H](C)O)[nH]c5c4)cc3)cc2[nH]1)[C@@H](C)O [compound 557],< 1

# Same assay, conditions: Hepatitis C virus, Huh-7, 72 h, read-out: Inhibition of HCV genotype 1b, Table 5, 72 h incubation
row,Compound,EC50 [nM]
1,CC(C)(C)OC(=O)N[C@@H](C(=O)N1CCC[C@H]1CNC(=O)C12CCC(c3ccc(-c4cnc([C@@H]5CCCN5C(=O)[C@H](NC(=O)OC(C)(C)C)c5ccccc5)[nH]4)cc3)(CC1)CC2)c1ccccc1 [compound 600],1 to 9.9
2,CC(C)(C)OC(=O)N[C@H](C(=O)N1CCC[C@H]1c1ncc(-c2ccc(C34CCC(c5cnc([C@@H]6CCCN6C(=O)[C@H](NC(=O)OC(C)(C)C)c6ccccc6)[nH]5)(CC3)CC4)cc2)[nH]1)c1ccccc1 [compound 601],< 1
3,O=C(N[C@@H](C(=O)N1CCC[C@H]1CNC(=O)C12CCC(c3ccc(-c4cnc([C@@H]5CCCN5C(=O)[C@H](NC(=O)C5CC5)c5ccccc5)[nH]4)cc3)(CC1)CC2)c1ccccc1)C1CC1 [compound 602],< 1
4,O=C(N[C@@H](C(=O)N1CCC[C@H]1CNC(=O)C12CCC(c3ccc(-c4cnc([C@@H]5CCCN5C(=O)[C@H](NC(=O)N5CCOCC5)c5ccccc5)[nH]4)cc3)(CC1)CC2)c1ccccc1)N1CCOCC1 [compound 603],1 to 9.9
5,COC(=O)N[C@@H](C(=O)N1CCC[C@H]1CNC(=O)C12CCC(c3ccc(-c4cnc([C@@H]5CCCN5C(=O)[C@H](NC(=O)OC)c5ccccc5)[nH]4)cc3)(CC1)CC2)c1ccccc1 [compound 604],< 1
6,CC(C)(C)OC(=O)N[C@@H](C(=O)N1CCC[C@H]1c1ncc(-c2ccc(C34CCC(c5cnc([C@@H]6CCCN6C(=O)[C@H](NC(=O)OC(C)(C)C)c6ccccc6)o5)(CC3)CC4)cc2)[nH]1)c1ccccc1 [compound 605],1 to 9.9
7,COC(=O)N[C@@H](C(=O)N1CCC[C@H]1c1ncc(-c2ccc(C34CCC(c5cnc([C@@H]6CCCN6C(=O)[C@H](NC(=O)OC)c6ccccc6)[nH]5)(CC3)CC4)cc2)[nH]1)c1ccccc1 [compound 606],< 1
8,O=C(N[C@@H](C(=O)N1CCC[C@H]1c1ncc(-c2ccc(C34CCC(c5cnc([C@@H]6CCCN6C(=O)[C@H](NC(=O)C6CC6)c6ccccc6)[nH]5)(CC3)CC4)cc2)[nH]1)c1ccccc1)C1CC1 [compound 607],< 1
9,COC(=O)N[C@H](C(=O)N1CCC[C@H]1c1ncc(C23CCC(c4ccc(-c5cnc([C@@H]6CCCN6C(=O)[C@H](NC(=O)OC)c6ccccc6)[nH]5)cc4)(CC2)CC3)[nH]1)[C@@H](C)OC [compound 609],< 1
10,COC(=O)N[C@H](Cc1ccccc1)C(=O)N1CCC[C@H]1c1ncc(C23CCC(c4ccc(-c5cnc([C@@H]6CCCN6C(=O)[C@H](NC(=O)OC)c6ccccc6)[nH]5)cc4)(CC2)CC3)[nH]1 [compound 610],< 1
11,COC(=O)N[C@@H](C(=O)N1CCC[C@H]1c1ncc(-c2ccc(C34CCC(c5cnc([C@@H]6CCCN6C(=O)[C@@H](c6ccccc6)N6CCOCC6)[nH]5)(CC3)CC4)cc2)[nH]1)c1ccccc1 [compound 611],< 1
12,COC(=O)N[C@H](C(=O)N1CCC[C@H]1c1ncc(-c2ccc(C34CCC(c5cnc([C@@H]6CCCN6C(=O)[C@@H](NC(=O)OC)[C@@H](C)OC)[nH]5)(CC3)CC4)cc2)[nH]1)[C@@H](C)OC [compound 612],< 1
13,COC(=O)N[C@@H](C(=O)N1CCC[C@H]1c1ncc(-c2ccc(C34CCC(c5cnc([C@@H]6CCCN6C(=O)[C@H](OC)c6ccccc6)[nH]5)(CC3)CC4)cc2)[nH]1)c1ccccc1 [compound 615],< 1
14,COC(=O)N[C@@H](C(=O)N1CCC[C@H]1c1ncc(-c2ccc(C34CCC(c5cnc([C@@H]6CCCN6C(=O)[C@H](NC(=O)OC)C(C)C)[nH]5)(CC3)CC4)cc2)[nH]1)c1ccccc1 [compound 616],< 1
15,COC(=O)N[C@H](C(=O)N1CCC[C@H]1c1ncc(C23CCC(c4ccc(-c5cnc([C@@H]6CCCN6C(=O)[C@H](NC(=O)OC)c6ccccc6)[nH]5)cc4)(CC2)CC3)[nH]1)C(C)C [compound 617],< 1
16,COC(=O)N[C@@H](C(=O)N1CCC[C@H]1c1ncc(-c2ccc(C34CCC(c5cnc([C@@H]6CCCN6C(=O)[C@@H](c6ccccc6)N(C)C)[nH]5)(CC3)CC4)cc2)[nH]1)c1ccccc1 [compound 618],< 1
17,CCN(CC)[C@@H](C(=O)N1CCC[C@H]1c1ncc(C23CCC(c4ccc(-c5cnc([C@@H]6CCCN6C(=O)[C@H](NC(=O)OC)c6ccccc6)[nH]5)cc4)(CC2)CC3)[nH]1)c1ccccc1 [compound 619],< 1
18,COC(=O)N[C@@H](C(=O)N1CCC[C@H]1c1ncc(C23CCC(c4ccc(-c5cnc([C@@H]6CCCN6C(=O)[C@H](OC)c6ccccc6)[nH]5)cc4)(CC2)CC3)[nH]1)c1ccccc1 [compound 620],< 1
19,COC(=O)N[C@@H](C(=O)N1CCC[C@H]1c1ncc(C23CCC(c4ccc(-c5cnc([C@@H]6CCCN6C(=O)[C@H](NC(=O)OC)C(C)C)[nH]5)cc4)(CC2)CC3)[nH]1)c1ccccc1 [compound 621],< 1
20,COC(=O)N[C@@H](C(=O)N1CCC[C@H]1c1ncc(C23CCC(c4ccc(-c5cnc([C@@H]6CCCN6C(=O)[C@@H](c6ccccc6)N(C)C)[nH]5)cc4)(CC2)CC3)[nH]1)c1ccccc1 [compound 622],< 1
21,COC(=O)N[C@@H](C(=O)N1CCC[C@H]1c1ncc(C23CCC(c4ccc(-c5cnc([C@@H]6CCCN6C(=O)[C@@H](c6ccccc6)N6CCCC6)[nH]5)cc4)(CC2)CC3)[nH]1)c1ccccc1 [compound 623],< 1
22,COC(=O)N[C@H](C(=O)N1CCC[C@H]1c1ncc(-c2ccc(C34CCC(c5cnc([C@@H]6CCCN6C(=O)[C@H](NC(=O)OC)c6ccccc6)[nH]5)(CC3)CC4)cc2)[nH]1)C(C)C [compound 624],< 1
23,COC(=O)N[C@@H](C(=O)N1CCC[C@H]1c1ncc(C23CCC(c4ccc(-c5cnc([C@@H]6CCCN6C(=O)[C@H](NC(=O)C6CC6)c6ccccc6)[nH]5)cc4)(CC2)CC3)[nH]1)c1ccccc1 [compound 625],< 1
24,COC(=O)N[C@H](C(=O)N1CCC[C@H]1c1ncc(-c2ccc(C34CCC(c5cnc([C@@H]6CCCN6C(=O)[C@H](NC(=O)OC(C)(C)C)c6ccccc6)[nH]5)(CC3)CC4)cc2)[nH]1)C(C)C [compound 626],< 1
25,COC(=O)N[C@H](C(=O)N1CCC[C@H]1c1ncc(-c2ccc(C34CCC(c5cnc([C@@H]6CCCN6C(=O)[C@@H](NC(=O)OC)C(C)C)[nH]5)(CC3)CC4)cc2)[nH]1)C(C)C [compound 627],< 1
